{"source": "paper PMC5938390", "about": "“Tachyplesin Causes Membrane Instability That Kills Multidrug-Resistant Bacteria by Inhibiting the 3-Ketoacyl Carrier Protein Reductase FabG” (Frontiers in Microbiology, 2018)", "key": {"[1]": {"test_system": "Escherichia coli strain DH5α", "test": "Stability in sterile deionized water, read out as MIC against DH5α", "assay_type": "physicochemical", "settings": "37°C, 2 mg/ml, stability judged by MIC against DH5α", "experimental": "(§1) These studies were carried out as we previously reported with slight modifications and briefly introduced as follows ([Liu et al., 2017]). […] Cytotoxicity in different cell lines was assessed using the Cell Proliferation Kit II (XTT) (Roche), and cytotoxicity in hemocytes was evaluated by the increase in the absorbance at 540 nm after peptide incubation. Membrane rupture was indicated by the entrance of the DNA-binding fluorescent dye PI into MDR clinical isolates of P. aeruginosa strain 1409. Membrane translocation of N-terminal FITC-conjugated tachyplesin III (purity ≥ 95%, synthesized by GL Biochem Co., Ltd, Shanghai, China) into MDR clinical isolates of Acinetobacter baumannii strain 1408 were detected by confocal laser-scanning microscopy.\n(§2) Tachyplesin III (2 mg/ml) was incubated in either sterile deionized water or mouse serum at 37°C for various lengths of time, aliquots were taken, and MICs against DH5α cells were tested. Stability of the MIC indicates the stability of tachyplesin III."}, "[2]": {"test_system": "Escherichia coli strain DH5α", "settings": "37°C, 2 mg/ml, stability judged by MIC against DH5α, tested during the first 6 h", "experimental": "as §1, §2"}, "[3]": {"test_system": "293FT (human embryonic kidney cell line)", "settings": "concentration increased from 100 mg/L to 200 mg/L, XTT", "experimental": "as §1\n(§3) Cytotoxicity of tachyplesin III was tested by hemolysis and cell viability assays. (A) Tachyplesin III dissolved in 0.9% saline was added to mouse erythrocytes that were diluted with the same buffer. After 30 min of incubation at 37°C and then centrifugation at 1000 g for 15 min, supernatants were diluted 1:4 with 0.9% saline, and absorbance at 540 nm was tested. With 1% Triton X-100 (v/v) to determine 100% hemolysis and 0.9% saline as the negative control, the hemolysis rate was calculated as [(Absorbancesample^-Absorbancecontrol)/(Absorbance100%^-Absorbancecontrol)] × 100. Cytotoxicity was assessed using the Cell Proliferation Kit II (XTT) (Roche) for (B) L929 (mouse fibroblast cell line), (C) 293FT (human embryonic kidney cell line) and (D) A549 (adenocarcinomic human alveolar basal epithelial cell line) cells. Absorbance [A492-A690 nm] was used to quantify viable cells."}, "[4]": {"test_system": "A549 (adenocarcinomic human alveolar basal epithelial cell line)", "settings": "concentration increased from 200 mg/L to 400 mg/L, XTT", "experimental": "as §1, §3"}, "[5]": {"test_system": "L929 (mouse fibroblast cell line)", "settings": "concentration increased from 50 mg/L to 100 mg/L, XTT", "experimental": "as §1, §3"}, "A. baumannii 1408": {"test_system": "A. baumannii 1408", "test": "MIC against MDR clinical isolate", "assay_type": "cell-based, Acinetobacter baumannii"}, "FabG from E. coli": {"molecular_target": "T1, FabG from E. coli (Escherichia coli, UniProt P0AEK2)", "T1 construct": "His tag (N); made in house; host or cells: E. coli BL21 DE3 (vector pET28a)", "T1 sequence (P0AEK2 1-244)": "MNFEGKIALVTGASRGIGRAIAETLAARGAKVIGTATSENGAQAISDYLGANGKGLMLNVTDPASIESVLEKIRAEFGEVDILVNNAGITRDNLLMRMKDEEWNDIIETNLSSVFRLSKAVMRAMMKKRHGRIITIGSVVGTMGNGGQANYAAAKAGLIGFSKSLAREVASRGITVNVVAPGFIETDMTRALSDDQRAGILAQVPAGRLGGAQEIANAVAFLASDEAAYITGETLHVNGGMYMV", "test": "Surface plasmon resonance binding", "settings": "tachyplesin III on CM5 chip, FabG 1.25-10 μg/mL injected, HBS-N buffer", "experimental": "(§4) N-terminal His-tagged FabG from E. coli and C-terminal His-tagged FabG from Staphylococcus aureus were cloned into the NcoI and XhoI cloning sites of the vector pET28a, expressed in BL21 DE3 E. coli and further purified with Ni resin ([Kristan et al., 2009]; [Srinivas and Cronan, 2017]). The binding interaction between tachyplesin III and FabG was analyzed by surface plasmon resonance (SPR) with a Biocore 3000 (Biocore, Piscataway, NJ, United States). Briefly, tachyplesin III was adsorbed onto a CM5 sensor chip using an amine-coupling kit (GE Healthcare, Little Chalfont, United Kingdom) to obtain approximately 1000 resonance units. […] The binding affinity of FabG for tachyplesin III was determined by BIAevaluation 3.0 software (Biacore) with a 1:1 Langmuir binding model for the kinetic calculation ([Wei et al., 2013]).\n(§5) FIGURE 7 Tachyplesin III binding with FabG inhibits its enzyme activities in vitro, probably by blocking the active site. Binding interactions between tachyplesin III and FabG from E. coli (A) or from S. aureus (E) were analyzed by surface plasmon resonance (SPR) with a Biocore 3000 (Biocore, Piscataway, NJ, United States). […] Statistical significance was analyzed by one-way ANOVA followed by the Newman–Keuls multiple-comparisons test, ^∗∗p < 0.01, ^∗p < 0.05."}, "FabG from S. aureus": {"molecular_target": "T2, FabG from S. aureus (Staphylococcus aureus, UniProt P0A0H9)", "T2 construct": "His tag (C); made in house; host or cells: E. coli BL21 DE3 (vector pET28a)", "T2 sequence (P0A0H9 1-246)": "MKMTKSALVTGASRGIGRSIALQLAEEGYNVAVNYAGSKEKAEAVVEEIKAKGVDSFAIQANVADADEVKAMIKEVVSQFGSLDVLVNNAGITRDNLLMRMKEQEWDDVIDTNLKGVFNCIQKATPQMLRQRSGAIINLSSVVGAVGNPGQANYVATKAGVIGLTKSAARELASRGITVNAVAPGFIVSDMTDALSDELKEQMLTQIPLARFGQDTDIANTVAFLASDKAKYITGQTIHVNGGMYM", "test": "Surface plasmon resonance binding", "settings": "tachyplesin III on CM5 chip, FabG 1.25-10 μg/mL injected, HBS-N buffer", "experimental": "as §4, §5"}}, "note": "Positions of bridges follow the written chain, without caps; N, C: chain ends. Residues, ends and D or L forms follow the SMILES beside them."}
{"smiles": "CC[C@H](C)[C@@H]1NC(=O)CNC(=O)[C@H](CCCNC(=N)N)NC(=O)[C@H](Cc2ccc(O)cc2)NC(=O)[C@@H]2CSSC[C@H](NC1=O)C(=O)N[C@@H](Cc1ccc(O)cc1)C(=O)N[C@@H](CCCNC(=N)N)C(=O)N[C@@H](CCCCN)C(=O)N[C@H](C(=O)N[C@@H](CCCNC(=N)N)C(N)=O)CSSC[C@H](NC(=O)[C@H](Cc1c[nH]c3ccccc13)NC(=O)[C@@H](N)CCCCN)C(=O)N[C@@H](Cc1ccccc1)C(=O)N[C@@H](CCCNC(=N)N)C(=O)N[C@@H](C(C)C)C(=O)N2", "note": "[tachyplesin III] (H-KWCFRVCYRGICYRKCR-NH2; disulfide 3-16, 7-12 (inferred); N-terminus and C-terminus assumed)", "values": [{"measurement": "time stable in sterile deionized water", "setting": "[1]", "result": "~48", "unit": "h"}, {"measurement": "time stable in mouse serum", "setting": "[2]", "result": "at least 6 h"}, {"measurement": "cell viability", "setting": "[3]", "result": "Dramatic decreases in viability"}, {"measurement": "cell viability", "setting": "[4]", "result": "Dramatic decreases in viability"}, {"measurement": "cell viability", "setting": "[5]", "result": "declined sharply"}, {"measurement": "16 μg/ml tachyplesin III expressed as multiple of MIC", "setting": "A. baumannii 1408", "result": 1, "unit": "× MIC"}, {"measurement": "binding with FabG (SPR)", "setting": "FabG from E. coli", "result": "could bind"}, {"measurement": "binding with FabG (SPR)", "setting": "FabG from S. aureus", "result": "could bind"}]}
